Reference: a melting point compilation (Tetko et al.; mined from patent text by program, amines drawn as free bases though some values may be those of a salt)

Work on `Cn1cc(S(C)=O)c(=O)c2sccc21` (stereo unspecified) yielded a melting point of 199 °C. With `Cc1nc2c(c3c1[nH]c1cc(Cl)ccc13)C(=O)CC(C)(C)C2` the melting point was 248 to 250 °C. In the case of `COC(=O)C(=C1SCCCN1C(=O)C(Cl)Cl)[N+](=O)[O-]`, the melting point is reported as 122 °C. `Cc1cc2c3c(cc(C)c2[nH]c1=O)CC(C)(CBr)O3` (stereo unspecified) gave a melting point of 257 to 259 °C. Work on `CC1(C)C(C)(C)C1(Cl)c1ccc2c(c1)OCO2` yielded a melting point of 110 to 112 °C. With `O=C(Cc1ccc(Oc2ccc(F)cc2)cc1)NC1(C(=O)O)Cc2ccc(-c3ccc(Cl)cc3)cc2C1` (stereo unspecified) the melting point was 232 to 234 °C. Work on `CCCCCC(=O)c1c(CBr)n(C(=O)OC)c(=O)n1C(=O)OC` yielded a melting point of 71 to 73 °C. For `O=C(O)[C@@H](Cc1ccccc1)Oc1c(Br)cc(-c2c3ccccc3c(Br)c3sc4ccccc4c23)cc1Br`, the melting point was 140 to 142 °C. `Cc1ccc(C2c3c(C)c(N4CCN(C)CC4)c(C)c(C)c3OC2(C)C)cc1` (stereo unspecified) gave a melting point of 188 to 190 °C. For `CC(C)Oc1ccccc1-c1cc(=O)c2cc(C(=O)O)ccc2o1`, the melting point was 133 to 135 °C. Compound `O=c1c(-c2ccc(Cl)cc2)c(CCC2CC2)nc2ccccn12` has a melting point of 126 to 127 °C. In the case of `COc1cccc(N2CCN(c3ccc(S(=O)(=O)N[C@@H](Cc4ccccc4)C(=O)O)cc3)CC2)c1`, the melting point is reported as 137 to 139 °C. Work on `CCOC(=O)CC[C@H](NC(=O)c1ccc(CN(C=O)CC2CNc3nc(NC(=O)C(C)(C)C)nc(O)c3C2)cc1)C(=O)OCC` (stereo partly specified) yielded a melting point of 149 to 151 °C. With `CCCn1nc2c(N)nc3ccccc3c2c1CCN1CCCS1(=O)=O` the melting point was 201 to 202 °C. Compound `CC(=O)c1ccc(-c2cn3ccccc3n2)cc1` has a melting point of 209 to 210 °C. For `COc1ccnc(NC(=O)NS(=O)(=O)c2ccccc2-c2nn(C)c(=O)o2)n1`, the melting point was 223 to 224 °C. Work on `CC(C)(C)c1ccc(OP2N(C(C)(C)C)P(Oc3ccc(C(C)(C)C)cc3C(C)(C)C)N2C(C)(C)C)c(C(C)(C)C)c1` (stereo unspecified) yielded a melting point of 205 to 210 °C. With `O=C1Nc2cccnc2N(CCCCN2CCCCC2)c2ccccc21` the melting point was 131 to 132 °C. For `CCn1c(C(=O)N(C)Cc2cc(C(F)(F)F)cc(C(F)(F)F)c2)c(-c2ccccc2)c2ccccc2c1=O`, the melting point was 105 to 106 °C. In the case of `CCCCCCN(CCCCCC)C(Nc1ccc(-c2ccccc2)cc1)=C1C(=O)COC1=O`, the melting point is reported as 138 to 140 °C. With `COC(=O)c1ccc(Cc2c[nH]c3ccc(C(=O)OC)cc23)c(OC)c1` the melting point was 136 to 138 °C. `CS(=O)(=O)c1ccc(S(C)(=O)=O)nc1` showed a melting point of 205 to 207 °C. Work on `COc1cccc2c1C(=O)C(CC=O)C2` (racemic) yielded a melting point of 102 °C. With `CN1C(=O)C2(COc3cc4c(cc32)OCO4)c2c(C3CCOC3)cccc21` (stereo unspecified) the melting point was 182 to 184 °C. `Fc1ccc(-c2[nH]nc(Br)c2-c2ccncc2)cc1F` showed a melting point of 285 to 290 °C. Compound `Cc1c(-c2ccc(F)cc2)oc2c(-c3ccc(F)cc3)c(-c3ccc(S(C)(=O)=O)cc3)nn12` has a melting point of 257 to 259 °C. With `CC1(C)CC(=O)C=C(OC(=O)c2cccc3nnsc23)C1` the melting point was 131 to 133 °C. For `NC(=O)CC(=O)NCCS`, the melting point was 100 °C. `COc1cc(OCC(CO)CO)c(-c2cccs2)cc1C=O` gave a melting point of 144 to 145 °C. `O=C(O)C1Cc2c(n(Cc3ccccc3)c3ccccc23)CN1` (stereo unspecified) showed a melting point of 252 to 253 °C. In the case of `CC(C)C[C@H](N)C(=O)N[C@@H](CC1CCCCC1)[C@@H](O)c1nccs1`, the melting point is reported as 140 to 141 °C. `O=C(NCc1ccc(Cl)cc1)c1nn(-c2ccccc2)c2sc(CN3CCOCC3)cc2c1=O` showed a melting point of 182 to 184 °C. `Cc1c(C)c2c(c(C)c1NC(=O)CC(C)(C)C)C(c1ccc(C=O)cc1)CO2` (stereo unspecified) gave a melting point of 195 to 196 °C. In the case of `COC(=O)c1ccc(/C=C/Cc2cc3c(cc2C)CCC(C)(C)CC3)cc1`, the melting point is reported as 59 to 60 °C. For `COc1ccc(C=O)c2cc(C)oc12`, the melting point was 167 to 170 °C. Compound `Cc1cc(-c2nncc3c(C(C)(C)C)c(OCc4ccccn4)nn23)no1` has a melting point of 175 to 178 °C. With `COc1ccc(S(=O)(=O)Nc2cccc3c2Nc2ccccc2CO3)cc1` the melting point was 154 to 155 °C. `COC(=O)c1ccc(-c2ccc(C(OC)OC)cc2)cc1` gave a melting point of 76 to 77 °C. `CCCCCCCCCCCCCCCCCCCCCCNc1cc(N)c([N+](=O)[O-])cc1[N+](=O)[O-]` gave a melting point of 108 to 110 °C. Work on `CC(=O)Nc1cc(Cl)ccc1OCC#N` yielded a melting point of 146 to 149 °C. With `CCOc1ccc2[nH]c(=O)n(C3CCCCC3)c2c1` the melting point was 203 °C. `CC(C)(C)OC(=O)N1CCCN(c2ccncc2)CC1` showed a melting point of 124 to 129 °C. `CC(=O)NC(=O)N1CC1C#N` (stereo unspecified) gave a melting point of 139 to 142 °C. `COc1cc(Cc2cnc(N)nc2N)cc2cccnc12` gave a melting point of 285 to 287 °C. `CC(C)n1c(=O)nc(-c2cc3c(cc2Cl)OCO3)c2cc3c(cc21)OCO3` showed a melting point of 147 to 150 °C. Work on `Cc1ccc(CCC(=O)C(=[N+]=[N-])C(=O)CCc2ccc(C)cc2)cc1` yielded a melting point of 45.6 to 46.8 °C. For `CCOC(CCCN1CCC(NC(=O)c2ccccc2)CC1)OCC`, the melting point was 95 °C. In the case of `CC#CC(=O)N[C@H]1CC[C@H](CCN2CCN(c3nccc4c3CCO4)CC2)CC1`, the melting point is reported as 193 °C. Compound `N=C(NC=Cc1ccc([N+](=O)[O-])cc1)c1ccc([N+](=O)[O-])cc1` has a melting point of 214 to 216 °C. `C=C(c1cc(OC)c(O)c2c(Cc3ccccc3)cccc12)C(C)(C)C(=O)O` showed a melting point of 162 °C. `CC1=CC(OC(=O)c2cccn2C)C(O)C(C)(C)CC1=O` (stereo unspecified) gave a melting point of 141 to 142 °C. In the case of `Nc1nc2ccc(NC(=O)CNC(=O)[C@@H](Cc3ccccc3)NS(=O)(=O)Cc3ccccc3)cc2s1`, the melting point is reported as 127 to 130 °C. `Cc1cc2c(cc1C)C(=O)C(Br)=C(N)C2=O` gave a melting point of 228 °C. In the case of `CN(CCO)c1nccc(NC(N)=NCC(F)(F)F)n1`, the melting point is reported as 158 to 160 °C. Compound `CCCCOc1ccc(S(=O)(=O)N2CC(N(Cc3ccccc3)CC(O)COc3cccc4[nH]c5ccccc5c34)C2)cc1` (stereo unspecified) has a melting point of 65 to 67 °C. `CC(=O)NC[C@H]1CN(c2cc(F)c3c(c2)CCCCC3=O)C(=O)O1` gave a melting point of 151 to 152 °C. `CCCCCCCCCCCCc1ccc(S(=O)(=O)Nc2nnc(S(N)(=O)=O)s2)cc1` gave a melting point of 249 to 250 °C. Compound `CC1(C)CC(c2c[nH]c(-c3ccc(F)cc3)c2-c2ccncc2)CC(C)(C)N1` has a melting point of 242 to 243 °C. With `O=C(NC(Cc1ccc(OCC2CC2)cc1)C(=O)O)c1cn2cc(-c3ccc(Cl)cc3)ccc2n1` (stereo unspecified) the melting point was 276 °C. Work on `CC(C)(C)C(=O)Nc1c[nH]nc1C(=O)NCCC#N` yielded a melting point of 165 to 166 °C. `CC=CCN1CCNC1=C[N+](=O)[O-]` gave a melting point of 82 to 85 °C. Work on `CC(=O)NCc1ccc(CN2CCN(c3cccc(C)c3)CC2)cc1` yielded a melting point of 80 to 81 °C. `CC(C)(C)OC(=O)CONC(=O)c1ccc(C(=O)C(C)(C)C)cc1` gave a melting point of 87 to 88 °C. With `O=Cc1oc(-c2ccccc2)nc1CO` the melting point was 134 to 135 °C. Work on `CN1CC[C@@H](c2c(O)cc(O)c3c(=O)cc(-c4ccccc4I)oc23)[C@@H]1CO` yielded a melting point of 233 to 235 °C. For `COc1ccc(SC2CC(=O)NC2=O)cc1` (stereo unspecified), the melting point was 93 to 94 °C. `CC(=O)Nc1c(C)c2c(c(C)c1[N+](=O)[O-])OC(C)(C)C2` gave a melting point of 203 to 204 °C. `N#CCNC(=O)C(Sc1nc2cc(Cl)ccc2s1)c1ccccc1` (stereo unspecified) gave a melting point of 167 to 169 °C. For `CC(C)OC(=O)C1=C(c2cn(C)c3ccccc23)C(=O)NC1=O`, the melting point was 199 to 202 °C. Compound `N#Cc1cccc(C(=O)c2ccccc2)c1` has a melting point of 84 to 85 °C. In the case of `COCOc1cccc(Cn2nc(C(=O)OC)c3c2-c2ccc(OCc4cncnc4)cc2CC3)c1`, the melting point is reported as 178 to 180 °C.
